Data from ChEMBL document CHEMBL1201862, “PubChem BioAssay data set” (2004).
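The compound was tested at five concentrations on cells cultured in 96-well plates, with a 48-hour exposure period. At the GI50, growth is halved.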 Active and inactive are the calls of the source. No stated cut-off is given here; in the data, active = GI50 up to about 1.1 µM and inactive = higher.

What was measured:
Assay in all cases: NCI tumour cell line growth inhibition, 48 h
SW-620 = tested on: SW-620
UO-31 = tested on: UO-31
CCRF-CEM = tested on: CCRF-CEM
SN12C = tested on: SN12C
TK-10 = tested on: TK-10
SF-539 = tested on: SF-539
HCC 2998 = tested on: HCC 2998
RXF 393 = tested on: RXF 393
OVCAR-5 = tested on: OVCAR-5
HT-29 = tested on: HT-29
M14 = tested on: M14
ACHN = tested on: ACHN
COLO 205 = tested on: COLO 205
SNB-75 = tested on: SNB-75
SF-268 = tested on: SF-268
U-251 = tested on: U-251
OVCAR-3 = tested on: OVCAR-3

Measured: GI50

O=C1C(Cl)=C(Cl)C(=O)N1C1C2CC3CC(C2)CC1C3 (stereo not drawn)
inactive: SW-620 47 µM | UO-31 > 100 µM | CCRF-CEM 19.3 µM | SN12C > 100 µM | TK-10 > 100 µM | SF-539 > 100 µM | HCC 2998 > 100 µM | RXF 393 94.6 µM | OVCAR-5 > 100 µM | HT-29 > 100 µM | M14 > 100 µM | ACHN > 100 µM | COLO 205 32.8 µM | SNB-75 > 100 µM | SF-268 > 100 µM | U-251 > 100 µM

CNc1ccc2ncccc2c1[N+](=O)[O-]
inactive: SW-620 > 100 µM | UO-31 > 100 µM | CCRF-CEM > 100 µM | SN12C > 100 µM | TK-10 > 100 µM | SF-539 > 100 µM | HCC 2998 > 100 µM | RXF 393 > 100 µM | OVCAR-5 > 100 µM | HT-29 > 100 µM | M14 > 100 µM | ACHN > 100 µM | SNB-75 > 100 µM | OVCAR-3 > 100 µM | SF-268 > 100 µM

CCOC(=O)C(=O)Nc1c(CC)cccc1C(C)C
inactive: SW-620 > 100 µM | UO-31 > 100 µM | SN12C > 100 µM | TK-10 > 100 µM | SF-539 > 100 µM | HCC 2998 > 100 µM | RXF 393 > 100 µM | OVCAR-5 > 100 µM | HT-29 > 100 µM | M14 > 100 µM | ACHN > 100 µM | COLO 205 > 100 µM | SNB-75 > 100 µM | OVCAR-3 > 100 µM | SF-268 > 100 µM | U-251 > 100 µM

O=C1c2ccccc2C(=O)c2nc3c(O)cccc3cc21
inactive: SW-620 3.57 µM | UO-31 14.5 µM | SN12C 25.4 µM | TK-10 74.5 µM | SF-539 28.4 µM | HCC 2998 35.9 µM | RXF 393 > 100 µM | OVCAR-5 89.7 µM | HT-29 21 µM | M14 6.34 µM | ACHN 27 µM | COLO 205 23.8 µM | SNB-75 68.1 µM | OVCAR-3 1.87 µM | SF-268 7.96 µM | U-251 20.8 µM

O=c1cc(-c2ccc(Cl)cc2)oc2cc(OCCCOc3ccc4c(=O)cc(-c5ccc(Cl)cc5)oc4c3)ccc12
inactive: SW-620 > 100 µM | CCRF-CEM > 100 µM | SN12C > 100 µM | TK-10 > 100 µM | SF-539 > 100 µM | HCC 2998 > 100 µM | RXF 393 > 100 µM | OVCAR-5 > 100 µM | HT-29 > 100 µM | M14 > 100 µM | ACHN > 100 µM | COLO 205 > 100 µM | SNB-75 45.2 µM | OVCAR-3 > 100 µM | SF-268 > 100 µM | U-251 > 100 µM

O=C(O)C1c2ccccc2C(C(=O)O)c2ccccc21 (stereo not drawn)
inactive: SW-620 > 100 µM | UO-31 > 100 µM | CCRF-CEM > 100 µM | SN12C > 100 µM | TK-10 > 100 µM | SF-539 > 100 µM | HCC 2998 > 100 µM | RXF 393 > 100 µM | OVCAR-5 > 100 µM | HT-29 > 100 µM | M14 > 100 µM | ACHN > 100 µM | COLO 205 > 100 µM | SNB-75 > 100 µM | SF-268 > 100 µM | U-251 > 100 µM

CCC12CCC(O)C1N(C)CCC2Sc1ccccc1 (stereo not drawn)
inactive: SW-620 > 100 µM | UO-31 28.8 µM | CCRF-CEM 77.4 µM | SN12C > 100 µM | TK-10 > 100 µM | SF-539 > 100 µM | HCC 2998 29.9 µM | RXF 393 > 100 µM | HT-29 34.8 µM | M14 > 100 µM | ACHN > 100 µM | COLO 205 80 µM | SNB-75 24.8 µM | OVCAR-3 > 100 µM | SF-268 75.5 µM | U-251 78.2 µM

O=C(CC1(O)C(=O)Nc2ccc(Br)cc21)c1cccc([N+](=O)[O-])c1 (stereo not drawn)
inactive: SW-620 37.8 µM | UO-31 64.9 µM | CCRF-CEM 24.1 µM | SN12C > 100 µM | TK-10 > 100 µM | HCC 2998 65 µM | RXF 393 23.8 µM | OVCAR-5 > 100 µM | HT-29 32.7 µM | M14 48.8 µM | ACHN 60.5 µM | COLO 205 > 100 µM | SNB-75 26.7 µM | OVCAR-3 38.7 µM | SF-268 39 µM | U-251 > 100 µM

C[n+]1c2ccccc2c(NC(CCCNC(=N)N)C(=O)O)c2ccccc21 (stereo not drawn)
inactive: SW-620 > 100 µM | UO-31 75.2 µM | SN12C > 100 µM | TK-10 > 100 µM | SF-539 > 100 µM | HCC 2998 > 100 µM | RXF 393 > 100 µM | OVCAR-5 > 100 µM | HT-29 > 100 µM | M14 > 100 µM | ACHN > 100 µM | COLO 205 > 100 µM | SNB-75 > 100 µM | OVCAR-3 > 100 µM | SF-268 > 100 µM | U-251 > 100 µM
